Earlier results as cited in patent US10927398B2, “Compositions for CYP450 phenotyping using saliva samples” (Concordia University, Inc., priority 2015, dated 2021).
Like-named read-outs stand apart in the source and are kept apart here.

What was measured:
[1] = cited from earlier work
plasma protein = conditions: Table of Exemplary Drugs, cited from earlier work
[2] = cited from earlier work; remark: listed apart in the source
[3] = Table of Exemplary Drugs, CYP3A4
[4] = Table of Exemplary Drugs, CYP2C9
[5] = Table of Exemplary Drugs, CYP2D6
[6] = Table of Exemplary Drugs, CYP2C19
[7] = Table of Exemplary Drugs, CYP1A2

## CCOc1ccccc1OCCN[C@H](C)Cc1ccc(OC)c(S(N)(=O)=O)c1 [Tamsulosin (Flomax), Tamsulosin]
[1]; [3]
  ORAL BIOAVAILABILITY: >90%
Plasma protein; CYP3A4
  PLASMA PROTEIN BINDING: 94-99% ^
[2]; [3]
  HALF-LIFE: 9 to 15 h

## CN1C(C(=O)Nc2ccccn2)=C(O)c2sc(Cl)cc2S1(=O)=O [Lornoxicam]
[1]; cell marked IM, Table of Exemplary Drugs, CYP2C9
  ORAL BIOAVAILABILITY: IM: 87%
Plasma protein; CYP2C9
  PLASMA PROTEIN BINDING: 99.7%^
[2]; [4]
  HALF-LIFE: 4 h

## C[C@]12C=CC(=O)N[C@@H]1CC[C@@H]1[C@@H]2CC[C@]2(C)[C@@H](C(=O)Nc3cc(C(F)(F)F)ccc3C(F)(F)F)CC[C@@H]12 [Dutasteride (Avodart), Dutasteride]
[1]; [3]
  ORAL BIOAVAILABILITY: 60%
Plasma protein; CYP3A4
  PLASMA PROTEIN BINDING: 99%
[2]; [3]
  HALF-LIFE: 5 weeks

## Cc1nnc2n1-c1ccc(Cl)cc1C(c1ccccc1)=NC2 [Alprazolam (Xanax), Alprazolam]
[1]; [3]
  ORAL BIOAVAILABILITY: 90%
Plasma protein; CYP3A4
  PLASMA PROTEIN BINDING: 80%
[2]; [3]
  HALF-LIFE: 11 h

## CCN1CCC[C@H]1CNC(=O)c1c(OC)ccc(Br)c1OC [Remoxipride]
[1]; [5]
  ORAL BIOAVAILABILITY: 96%
Plasma protein; CYP2D6
  PLASMA PROTEIN BINDING: 5-6%
[2]; [5]
  HALF-LIFE: 3 to 6 h

## Cc1ncc2n1-c1ccc(Cl)cc1C(c1ccccc1F)=NC2 [Midazolam (Versed), Midazolam]
[1]; in vivo, po
  ORAL BIOAVAILABILITY: PO: 36%
Plasma protein; CYP3A4
  PLASMA PROTEIN BINDING: 97%
[2]; in vivo
  HALF-LIFE: 3 to 6 h

## CC(=O)O[C@H]1C(=O)[C@@]2(C)[C@H]([C@H](OC(=O)c3ccccc3)[C@]3(O)C[C@H](OC(=O)[C@H](O)[C@@H](NC(=O)c4ccccc4)c4ccccc4)C(C)=C1C3(C)C)[C@]1(OC(C)=O)CO[C@@H]1C[C@@H]2O [Paclitaxel (Taxol), Paclitaxel]
[1]; [3]
  ORAL BIOAVAILABILITY: 6.50%
Plasma protein; CYP3A4
  PLASMA PROTEIN BINDING: 89-98% ^
[2]; [3]
  HALF-LIFE: 13.1 to 52.7 h

## COC(=O)C1=C(C)NC(C)=C(C(=O)OCC(C)C)C1c1ccccc1[N+](=O)[O-] (centres unmarked) [Nisoldipine (Sular), Nisoldipine]
[1]; [3]
  ORAL BIOAVAILABILITY: 5%
Plasma protein; CYP3A4
  PLASMA PROTEIN BINDING: 99%
[2]; [3]
  HALF-LIFE: 13.7 h

## C=CC[C@@H]1/C=C(\C)C[C@H](C)C[C@H](OC)[C@H]2O[C@@](O)(C(=O)C(=O)N3CCCC[C@H]3C(=O)O[C@H](/C(C)=C/[C@@H]3CC[C@@H](O)[C@H](OC)C3)[C@H](C)[C@@H](O)CC1=O)[C@H](C)C[C@@H]2OC [Tacrolimus (Prograf), Tacrolimus]
[1]; [3]
  ORAL BIOAVAILABILITY: 17-31%
Plasma protein; CYP3A4
  PLASMA PROTEIN BINDING: 99%
[2]; [3]
  HALF-LIFE: 8.7 to 37.9 h

## CC[C@@H](c1cccc(O)c1)[C@@H](C)CN(C)C [Tapentadol]
[1]; [4]
  ORAL BIOAVAILABILITY: 32%
[1]; [6]
  ORAL BIOAVAILABILITY: 32%
[1]; [5]
  ORAL BIOAVAILABILITY: 32%
Plasma protein; CYP2C9
  PLASMA PROTEIN BINDING: 20%
Plasma protein; CYP2C19
  PLASMA PROTEIN BINDING: 20%
Plasma protein; CYP2D6
  PLASMA PROTEIN BINDING: 20%
[2]; [4]
  HALF-LIFE: 4 to 5 h
[2]; [6]
  HALF-LIFE: 4 to 5 h
[2]; [5]
  HALF-LIFE: 4 to 5 h

## Fc1ccccc1C1=NCC(=S)N(CC(F)(F)F)c2ccc(Cl)cc21 [Quazepam (Doral), Quazepam]
[1]; [3]
  ORAL BIOAVAILABILITY: 29-35%
Plasma protein; CYP3A4
  PLASMA PROTEIN BINDING: >95%
[2]; [3]
  HALF-LIFE: 25 to 41 h

## CCCN1CCCC[C@H]1C(=O)Nc1c(C)cccc1C [Ropivacaine]
[1]; cell marked IV, Table of Exemplary Drugs, CYP1A2
  ORAL BIOAVAILABILITY: 87-98% - IV
Plasma protein; CYP1A2
  PLASMA PROTEIN BINDING: 94%
[2]; [7]
  HALF-LIFE: 5 to 7 h

## O=C(NCCN1CCOCC1)c1ccc(Cl)cc1 [Moclobemide]
[1]; [6]
  ORAL BIOAVAILABILITY: 55-95%
Plasma protein; CYP2C19
  PLASMA PROTEIN BINDING: 50%
[2]; [6]
  HALF-LIFE: 2 h

## CNCC[C@H](Oc1cccc2ccccc12)c1cccs1 [Duloxetine]
[1]; [5]
  ORAL BIOAVAILABILITY: 30-80%
Plasma protein; CYP2D6
  PLASMA PROTEIN BINDING: >90%
[2]; in vivo
  HALF-LIFE: 12 h

## Cc1nccn1CC1CCc2c(c3ccccc3n2C)C1=O (centres unmarked) [Ondansetron]
[1]; [7]
  ORAL BIOAVAILABILITY: 100%
[1]; [5]
  ORAL BIOAVAILABILITY: 56%
Plasma protein; CYP1A2
  PLASMA PROTEIN BINDING: 70-76% ^
Plasma protein; CYP2D6
  PLASMA PROTEIN BINDING: 70-76% ^
[2]; [7]
  HALF-LIFE: 3 to 6 h
[2]; [5]
  HALF-LIFE: 3 to 6.2 h

## CCC1=C(C)CN(C(=O)NCCc2ccc(S(=O)(=O)NC(=O)N[C@H]3CC[C@H](C)CC3)cc2)C1=O [Glimepiride]
[1]; [4]
  ORAL BIOAVAILABILITY: 100%
Plasma protein; CYP2C9
  PLASMA PROTEIN BINDING: >99%
[2]; [4]
  HALF-LIFE: 5 to 9.2 h

## CN(C)CCC=C1c2ccccc2C=Cc2ccccc21 [Cyclobenzaprine]
[1]; [7]
  ORAL BIOAVAILABILITY: 33-55%
Plasma protein; CYP1A2
  PLASMA PROTEIN BINDING: 93%
[2]; [7]
  HALF-LIFE: 8 to 37 h

## COC(=O)[C@H](c1ccccc1Cl)N1CCc2sccc2C1 [Clopidogrel]
[1]; [6]
  ORAL BIOAVAILABILITY: >50%
[1]; [3]
  ORAL BIOAVAILABILITY: >50%
Plasma protein; CYP2C19
  PLASMA PROTEIN BINDING: 98%
Plasma protein; CYP3A4
  PLASMA PROTEIN BINDING: 94-98% ^
[2]; [3]
  HALF-LIFE: 6 h

## CCC(=O)O[C@](Cc1ccccc1)(c1ccccc1)[C@H](C)CN(C)C [Propoxyphene (Darvon), Propoxyphene]
[1]; [3]
  ORAL BIOAVAILABILITY: 40%
Plasma protein; CYP3A4
  PLASMA PROTEIN BINDING: 78%
[2]; [3]
  HALF-LIFE: 6 to 12 h

## Clc1ccc2c(c1)C(c1ccccc1)=NCc1nncn1-2 [Estazolam (ProSom), Estazolam]
[1]; [3]
  ORAL BIOAVAILABILITY: 93%
Plasma protein; CYP3A4
  PLASMA PROTEIN BINDING: 93%
[2]; [3]
  HALF-LIFE: 10 to 24 h

## O=C1CCc2cc(OCCCCc3nnnn3C3CCCCC3)ccc2N1 [Cilostazol (Pletal), Cilostazol]
[1]; [3]
  ORAL BIOAVAILABILITY: 87-100%
Plasma protein; CYP3A4
  PLASMA PROTEIN BINDING: 95-98% ^
[2]; [3]
  HALF-LIFE: 11 to 13 h
